Assays:
[1] = tested on: Klebsiella pneumoniae; experiment: Antibacterial activity against Klebsiella pneumoniae at 200 ug/100uL after 24 hrs by agar well diffusion method; assay type: functional
[2] = tested on: Pseudomonas aeruginosa; experiment: Antibacterial activity against Pseudomonas aeruginosa at 200 ug/100uL after 24 hrs by agar well diffusion method; assay type: functional
[3] = tested on: Staphylococcus aureus; experiment: Antibacterial activity against Staphylococcus aureus at 200 ug/100uL after 24 hrs by agar well diffusion method; assay type: functional
[4] = tested on: Proteus mirabilis; experiment: Antibacterial activity against Proteus mirabilis after at 200 ug/100uL 24 hrs by agar well diffusion method; assay type: functional
[5] = tested on: Streptococcus pyogenes; experiment: Antibacterial activity against Streptococcus pyogenes at 200 ug/100uL after 24 hrs by agar well diffusion method; assay type: functional
[6] = tested on: Salmonella typhi; experiment: Antibacterial activity against Salmonella typhi at 200 ug/100uL after 24 hrs by agar well diffusion method; assay type: functional, Salmonella enterica subsp. enterica serovar Typhi
[7] = tested on: Shigella boydii; experiment: Antibacterial activity against Shigella boydii at 200 ug/100uL after 24 hrs by agar well diffusion method; assay type: functional

| Compound | inhibition zone (IZ) [1] [mm] | inhibition zone (IZ) [2] [mm] | inhibition zone (IZ) [3] [mm] | inhibition zone (IZ) [4] [mm] | inhibition zone (IZ) [5] [mm] | inhibition zone (IZ) [6] [mm] | inhibition zone (IZ) [7] [mm] |
| --- | --- | --- | --- | --- | --- | --- | --- |
| C[C@@H]([C@H]1CC[C@H]2[C@@H]3CC[C@H]4C[C@@H](N(C)C(=O)CCc5ccccc5)CC[C@]4(C)[C@H]3CC[C@]12C)N(C)C | 10.5 | 7.5 | 11 | – | – | – | – |
| C[C@@H]([C@H]1CC[C@H]2[C@@H]3CC[C@H]4C[C@@H](N(C)CCCc5ccccc5)CC[C@]4(C)[C@H]3CC[C@]12C)N(C)C | – | 5.5 | – | – | – | – | – |
| C[C@@H]([C@H]1CC[C@H]2[C@@H]3CC[C@H]4C[C@@H](N(C)C(=O)c5ccccc5)CC[C@]4(C)[C@H]3CC[C@]12C)N(C)C | 8 | 6 | 12 | 8 | 6 | 6 | 6 |
| C[C@@H]([C@H]1CC[C@H]2[C@@H]3CC[C@H]4C[C@@H](N(C)Cc5ccccc5)CC[C@]4(C)[C@H]3CC[C@]12C)N(C)C | 6 | 5.5 | 9 | – | – | – | – |
| CC1(C)S[C@@H]2[C@H](NC(=O)[C@H](N)c3ccc(O)cc3)C(=O)N2[C@H]1C(=O)O [AMOXICILLIN] | 17 | 15 | 16 | 16 | 16 | 12 | 17 |
| CC1(C)S[C@@H]2[C@H](NC(=O)[C@H](N)c3ccccc3)C(=O)N2[C@H]1C(=O)O [AMPICILLIN] | 17 | 15 | 18 | 17 | 17 | 12 | 17 |
| C[C@@H]([C@H]1CC[C@H]2[C@@H]3CC[C@H]4C[C@@H](NC(=O)c5ccccc5)CC[C@]4(C)[C@H]3CC[C@]12C)N(C)C [EPIPACHYSAMINE D] | – | – | 7 | – | – | – | – |
| C[C@@H]([C@H]1CC[C@H]2[C@@H]3CC[C@H]4C[C@@H](N(C)C(=O)/C=C/c5ccccc5)CC[C@]4(C)[C@H]3CC[C@]12C)N(C)C [SALIGCINNAMIDE] | 9 | 6 | 12 | 7 | 8 | 6 | 6 |

Source: ChEMBL document CHEMBL1141744, “Antibacterial steroidal alkaloids from Sarcococca saligna” (1998)
